From BindingDB's records for doi:10.1021/jm00066a012 (Upjohn Laboratories, 1993) come the findings set out here.

This assay in a line: In vitro inhibitory activity against ADP-induced human platelet aggregation.
In general, IC50 refers to the concentration that inhibits the measured activity by half. Low values mean greater potency, high ones weaker potency. Regarding `O=c1cc(N2CCOCC2)oc2cc(OCc3cccc4ccccc34)ccc12` [2-Morpholin-4-yl-7-(naphthalen-1-ylmethoxy)-chromen-4-one], inhibition was half-maximal at 41 µM (IC50).

Take `O=c1cc(N2CCOCC2)oc2cc(OCc3ccccn3)ccc12` [2-Morpholin-4-yl-7-(pyridin-2-ylmethoxy)-chromen-4-one]: 53 µM corresponded to half-maximal inhibition (IC50).

The compound `Cc1c(N2CCOCC2)oc2c(C)c(OCc3cccc4ccccc34)ccc2c1=O` [3,8-Dimethyl-2-morpholin-4-yl-7-(naphthalen-1-ylmethoxy)-chromen-4-one] returned an IC50 above 75 µM.

`Cc1cc2c(=O)cc(N3CCOCC3)oc2c(C)c1OCCN1CCN(C)CC1` [6,8-Dimethyl-7-[2-(4-methyl-piperazin-1-yl)-ethoxy]-2-morpholin-4-yl-chromen-4-one] showed an IC50 of 1.4 µM.

The compound `Cc1c(OCc2nnnn2C2CCCCC2)ccc2c(=O)cc(N3CCOCC3)oc12` [7-(1-Cyclohexyl-1H-tetrazol-5-ylmethoxy)-8-methyl-2-morpholin-4-yl-chromen-4-one] returned an IC50 of 12 µM.

`Cc1c(OCc2nnnn2C(C)(C)C)ccc2c(=O)cc(N3CCOCC3)oc12` [7-(1-tert-Butyl-1H-tetrazol-5-ylmethoxy)-8-methyl-2-morpholin-4-yl-chromen-4-one] had an IC50 of 2 µM.

`Cc1c(OCCN2CCCCCC2)ccc2c(=O)cc(N3CCOCC3)oc12` [7-(2-Azepan-1-yl-ethoxy)-8-methyl-2-morpholin-4-yl-chromen-4-one] had an IC50 of 3 µM.

Compound `CCN(CC)CCOc1ccc2c(=O)cc(N3CCOCC3)oc2c1C` [7-(2-Diethylamino-ethoxy)-8-methyl-2-morpholin-4-yl-chromen-4-one] returned an IC50 of 2.6 µM.

In turn, `COc1ccccc1COc1ccc2c(=O)cc(N3CCOCC3)oc2c1C` [7-(2-Methoxy-benzyloxy)-8-methyl-2-morpholin-4-yl-chromen-4-one] gave an IC50 of 44 µM.

On to `COCCOc1ccc2c(=O)cc(N3CCOCC3)oc2c1C` [7-(2-Methoxy-ethoxy)-8-methyl-2-morpholin-4-yl-chromen-4-one], for which the IC50 worked out at 7 µM.

The compound `COc1ccc(COc2ccc3c(=O)cc(N4CCOCC4)oc3c2C)cc1` [7-(4-Methoxy-benzyloxy)-8-methyl-2-morpholin-4-yl-chromen-4-one] had an IC50 of 47 µM.

The compound `C=CCOc1ccc2c(=O)cc(N3CCOCC3)oc2c1C` [7-Allyloxy-8-methyl-2-morpholin-4-yl-chromen-4-one] registered a half-inhibitory concentration (IC50) of 58 µM.

`Cc1c(N2CCOCC2)oc2c(C)c(OCc3ccccc3)ccc2c1=O` [7-Benzyloxy-3,8-dimethyl-2-morpholin-4-yl-chromen-4-one]: the concentration for half-maximal inhibition (IC50) was above 75 µM.

`Cc1c(OCc2ccccc2)ccc2c(=O)cc(N3CCOCC3)oc12` [7-Benzyloxy-8-methyl-2-morpholin-4-yl-chromen-4-one] had an IC50 of 40 µM. This counts as double-digit micromolar.

`COc1ccc2c(=O)cc(N3CCOCC3)oc2c1C` [7-Methoxy-8-methyl-2-morpholin-4-yl-chromen-4-one] displayed a 50% inhibitory concentration (IC50) of 41 µM.

In turn, `Cc1c(OCCN2CCN(Cc3ccccc3)CC2)ccc2c(=O)cc(N3CCOCC3)oc12` [7-[2-(4-Benzyl-piperazin-1-yl)-ethoxy]-8-methyl-2-morpholin-4-yl-chromen-4-one] had a half-inhibitory concentration (IC50) of 11 µM.

For `CCCc1c(OCCN2CCN(C)CC2)ccc2c(=O)cc(N3CCOCC3)oc12` [7-[2-(4-Methyl-piperazin-1-yl)-ethoxy]-2-morpholin-4-yl-8-propyl-chromen-4-one], the IC50 came out at 69 µM.

The compound `C=Cc1c(OCCN2CCN(C)CC2)ccc2c(=O)cc(N3CCOCC3)oc12` [7-[2-(4-Methyl-piperazin-1-yl)-ethoxy]-2-morpholin-4-yl-8-vinyl-chromen-4-one] yielded a 50% inhibitory concentration (IC50) of 3 µM.

Regarding `CN1CCN(CCOc2ccc3c(=O)cc(N4CCOCC4)oc3c2)CC1` [7-[2-(4-Methyl-piperazin-1-yl)-ethoxy]-2-morpholin-4-yl-chromen-4-one], the IC50 was determined as 35 µM. This IC50 is about 12-fold higher than that of the compound before.

For `Cc1c(OCCN2CCN(C)CC2)ccc2c(=O)cc(N3CCOCC3)oc12` [7-[2-(4-methylpiperazin-1-yl)ethoxy]-8-methyl-2-morpholinyl chromone], half-maximal inhibition (IC50) was put at 0.85 µM.

`CCN(CCOc1ccc2c(=O)cc(N3CCOCC3)oc2c1C)c1ccccc1` [7-[2-(Ethyl-phenyl-amino)-ethoxy]-8-methyl-2-morpholin-4-yl-chromen-4-one] gave a half-maximal inhibitory concentration (IC50) of 43 µM.

As for `Cc1c(OCCN2CCN(CCO)CC2)ccc2c(=O)cc(N3CCOCC3)oc12` [7-{2-[4-(2-Hydroxy-ethyl)-piperazin-1-yl]-ethoxy}-8-methyl-2-morpholin-4-yl-chromen-4-one], the 50% inhibitory concentration (IC50) turned out to be 12 µM.

As to `CCN(CCO)CCOc1ccc2c(=O)cc(N3CCOCC3)oc2c1C` [7-{2-[Ethyl-(2-hydroxy-ethyl)-amino]-ethoxy}-8-methyl-2-morpholin-4-yl-chromen-4-one], half-maximal inhibition (IC50) required 14 µM.

For the compound `C=CCc1c(OCCN2CCN(C)CC2)ccc2c(=O)cc(N3CCOCC3)oc12` [8-Allyl-7-[2-(4-methyl-piperazin-1-yl)-ethoxy]-2-morpholin-4-yl-chromen-4-one], half-maximal inhibition (IC50) was put at 8.9 µM.

In the case of `CCc1c(OCCN2CCN(C)CC2)ccc2c(=O)cc(N3CCOCC3)oc12` [8-Ethyl-7-[2-(4-methyl-piperazin-1-yl)-ethoxy]-2-morpholin-4-yl-chromen-4-one], inhibition was half-maximal at 4 µM (IC50).

In turn, `Cc1c(OCc2nnnn2-c2ccccc2)ccc2c(=O)cc(N3CCOCC3)oc12` [8-Methyl-2-morpholin-4-yl-7-(1-phenyl-1H-tetrazol-5-ylmethoxy)-chromen-4-one] gave an IC50 of 8 µM.

On to `Cc1c(OCC(=O)c2ccccc2)ccc2c(=O)cc(N3CCOCC3)oc12` [8-Methyl-2-morpholin-4-yl-7-(2-oxo-2-phenyl-ethoxy)-chromen-4-one], for which the IC50 amounted to 43 µM.

`CC(=O)COc1ccc2c(=O)cc(N3CCOCC3)oc2c1C` [8-Methyl-2-morpholin-4-yl-7-(2-oxo-propoxy)-chromen-4-one] returned a 50% inhibitory concentration (IC50) of 12 µM. This IC50 lies about 3.6-fold lower than the previous one.

The compound `Cc1c(OCCN2CCNCC2)ccc2c(=O)cc(N3CCOCC3)oc12` [8-Methyl-2-morpholin-4-yl-7-(2-piperazin-1-yl-ethoxy)-chromen-4-one] yielded an IC50 of 4 µM.

The compound `Cc1c(OCCN2CCCCC2)ccc2c(=O)cc(N3CCOCC3)oc12` [8-Methyl-2-morpholin-4-yl-7-(2-piperidin-1-yl-ethoxy)-chromen-4-one] displayed a 50% inhibitory concentration (IC50) of 5 µM.

For `Cc1c(OCCN2CCCC2)ccc2c(=O)cc(N3CCOCC3)oc12` [8-Methyl-2-morpholin-4-yl-7-(2-pyrrolidin-1-yl-ethoxy)-chromen-4-one], the IC50 worked out at 4 µM. This IC50 and that of the compound before are within 1.5-fold of each other.

`Cc1c(OCCN2CCSCC2)ccc2c(=O)cc(N3CCOCC3)oc12` [8-Methyl-2-morpholin-4-yl-7-(2-thiomorpholin-4-yl-ethoxy)-chromen-4-one] came in with a half-inhibitory concentration (IC50) of 4.3 µM.

For `Cc1c(OCc2cccc3ccccc23)ccc2c(=O)cc(N3CCOCC3)oc12` [8-Methyl-2-morpholin-4-yl-7-(naphthalen-1-ylmethoxy)-chromen-4-one], the concentration for half-maximal inhibition (IC50) was determined as 13 µM.

As to `Cc1c(OCc2ccc3ccccc3c2)ccc2c(=O)cc(N3CCOCC3)oc12` [8-Methyl-2-morpholin-4-yl-7-(naphthalen-2-ylmethoxy)-chromen-4-one], the concentration for half-maximal inhibition (IC50) came out at 65 µM.

The compound `Cc1c(OCc2ccccn2)ccc2c(=O)cc(N3CCOCC3)oc12` [8-Methyl-2-morpholin-4-yl-7-(pyridin-2-ylmethoxy)-chromen-4-one] gave an IC50 of 19 µM.

Consider `Cc1c(OCc2cccnc2)ccc2c(=O)cc(N3CCOCC3)oc12` [8-Methyl-2-morpholin-4-yl-7-(pyridin-3-ylmethoxy)-chromen-4-one], for which half-maximal inhibition (IC50) was put at 4 µM.

Compound `Cc1c(OCCN2CCN(c3ccccc3)CC2)ccc2c(=O)cc(N3CCOCC3)oc12` [8-Methyl-2-morpholin-4-yl-7-[2-(4-phenyl-piperazin-1-yl)-ethoxy]-chromen-4-one] registered an IC50 above 75 µM.

Regarding `Cc1c(OCc2nnnn2C)ccc2c(=O)cc(N3CCOCC3)oc12` [8-Methyl-7-(1-methyl-1H-tetrazol-5-ylmethoxy)-2-morpholin-4-yl-chromen-4-one], the half-inhibitory concentration (IC50) was found to be 2.8 µM.

Regarding `CSCCOc1ccc2c(=O)cc(N3CCOCC3)oc2c1C` [8-Methyl-7-(2-methylsulfanyl-ethoxy)-2-morpholin-4-yl-chromen-4-one], the midpoint of inhibition, the IC50, lay at 14 µM.

For the compound `COC(=O)COc1ccc2c(=O)c(C)c(N3CCOCC3)oc2c1C` [(3,8-Dimethyl-2-morpholin-4-yl-4-oxo-4H-chromen-7-yloxy)-acetic acid methyl ester], the concentration for half-maximal inhibition (IC50) is 59 µM. This IC50 is about 4.2-fold higher than that of the compound before.

As for `COC(=O)COc1ccc2c(=O)cc(N3CCOCC3)oc2c1C` [(8-Methyl-2-morpholin-4-yl-4-oxo-4H-chromen-7-yloxy)-acetic acid methyl ester], 9 µM corresponded to half-maximal inhibition (IC50).
